Measured values reported in paper PMC5456383 (PLoS ONE, 2017).
Where two headings read alike, the source gives them in different places.

What was measured:
[1] = test system: clinical isolates of A. felis from cats with invasive aspergillosis; conditions: cited from earlier work
From the text: Echinocandins have concentration-dependent activity against Aspergillus spp.

[2] = concentration independent, cited from earlier work
From the text: The relationship between antifungal in vivo susceptibility, dosages, drug concentrations within various body compartments and toxicological effects are not completely understood. […] For example, in sino-orbital aspergillosis systemic therapy may not be sufficient to penetrate the site of infection and reduce fungal burden. In addition, our work here is based upon total plasma concentra ...

[3] = caspofungin-treated patients with candidemia; cited from earlier work
[4] = test system: invasive pulmonary aspergillosis; conditions: cited from earlier work
[5] = parameters: Time at which steady state was achieved: dose or concentration left out as unconfirmed; conditions: cited from earlier work
[6] = Tolerability of IV caspofungin in healthy cats (physical examination, blood count, biochemistry)
Method: (§1) Cats were housed individually and acclimatized to the clinical environment for three days prior to the start of the study with free access to food and water.
(§2) For drug administration, a peripheral catheter (22G IV radiopaque catheter; OPTIVA®, Smiths Medical International Ltd, Lanchashire, UK) was placed into a cephalic vein.
(§3) Blood samples were immediately centrifuged (12, 000 g for 5 min) and plasma was stored at -80°C until assay.

[7] = Population pharmacokinetic modeling of caspofungin plasma concentrations in healthy cats (HPLC-MS/MS, NONMEM)
Method: as §1, §2, §3
Pharmacokinetic model development employed nonlinear mixed-effects modeling using NONMEM version 7.3 [17], with the Wings for NONMEM 7.3interface (http://wfn.sourceforge.net) and IFort compiler. […] Data manipulation and post-run processing of NONMEM output was conducted using the R data analysis language (Version 3.2.2) and the packages ggplot2, GGally, foreign, tidyr, Hmisc, gdata, doBy, plyr, grid, stringr with associated dependencies [17–28].
The base pharmacokinetic model was developed in a step-wise manner. Pharmacokinetic models were coded using the built-in ADVAN subroutines of NONMEM. Linear kinetic models with 1 and 2 compartments were evaluated. The First Order Conditional Estimation (FOCE) method was used to fit models. The base model was selected on the basis of mechanistic plausibility, visual inspection of goodness-of-fit diagnostic plots, the precision of parameter estimates (se% <30% for fixed, <50% for random effects parameters), and the lowest value of the Akaike’s information criterion (AIC; Eq 1) in accordance with the number of parameters and the final NONMEM derived objective function value (OBJ). The base model was also required to pass the covariance step.
Unless stated otherwise, population parameter variability (PPV) was represented using an exponential error model (Eq 2): Pj=TVP*e^ηj (2) where Pj is the individual value for the parameter in the j^th individual, TVP is the typical population value of P and ηj is an independent random variable with a mean of zero and variance ω^2. PPV was systematically examined on each fixed-effect parameter. Models with and without covariance for P were investigated using the OMEGA BLOCK functionality of NONMEM.
The influence of the additive component of the error was also examined by a comparison with a proportional only error model.

[8] = cats, 1 mg/kg IV infusion over 1 h, two-compartment model, scaled to 4 kg

Compound: CC[C@H](C)C[C@H](C)CCCCCCCCC(=O)N[C@H]1C[C@@H](O)[C@@H](NCCN)NC(=O)[C@@H]2[C@@H](O)CCN2C(=O)[C@H]([C@H](O)CCN)NC(=O)[C@H]([C@H](O)[C@@H](O)c2ccc(O)cc2)NC(=O)[C@@H]2C[C@@H](O)CN2C(=O)[C@H]([C@@H](C)O)NC1=O [caspofungin, caspofungin acetate]
- MEC ([1]; clinical isolates of A. felis from cats, all except one isolate): less than 0.06 μg/mL
- MEC ([1]; one clinical isolate of A. felis): 2 µg/mL
- Unbound fraction in serum ([2]; human serum): 3–4%
- Unbound fraction in serum ([2]; mouse serum): 3–4%
- Frequency of chills [3]: 5.3%
- Frequency of fever [3]: 7.5%
- Frequency of liver enzyme elevations (ALT, AST or ALP) [3]: 13.9%
- Frequency of nausea or vomiting [3]: 5.3%
- Frequency of phlebitis [3]: 3.5%
- Fungal burden versus mice dosed with 1 mg/kg q6 h ([4]; mice dosed with 1 mg/kg q24 h or 2 mg/kg q48 h): significantly lower fungal burdens
- Effect on fungal growth at higher doses ([4]; mice, 4 mg/kg, Cmax: MEC >20): paradoxical effect on fungal growth resulting in increased burdens
- Clearance in the typical 70 kg human [5]: 10 mL/min
- Trough concentration at steady state ([5]; humans given 70 mg/kg of caspofungin daily): 2.57 ± 0.34 µg/mL
- Time at which steady state was achieved ([5]; humans given of caspofungin daily): during the third week of administration
- Liver enzyme elevations ([6]; healthy cats, 1 mg/kg IV daily): did not occur in any cats
- Tolerability ([6]; healthy cats, 1 mg/kg IV over 1 h, single and 7 daily doses): well tolerated
- Changes on complete blood counts and multiple biochemical analyses ([6]; healthy cats, after consecutive daily dosing 1 mg/kg IV): no changes
- Body temperature during minor transient hyperthermia ([6]; one cat, during the first infusion only, reference range 37.5–39.1°C): 39.6–39.8 °C
- Diarrhoea ([6]; one cat, resolved within 24 h of the final infusion): mild transient diarrhoea
- clearance ([7]; both, domestic shorthair, plasma, iv, 1 mg/kg): 0.292 mL/min
- Q (mL/h) * (WT/4)^0.75, inter-compartmental clearance, population estimate [7, 8]: 150 mL/h
- V1 (mL) * (WT/4), central volume of distribution, population estimate [7, 8]: 214 mL
- V2 (mL) * (WT/4), peripheral volume of distribution, population estimate [7, 8]: 143 mL
- Time at which steady state was achieved ([7]; cats, daily IV dosing): approximately 72 h
